Measurements published in US9593100B2, “Compounds and compositions as protein kinase inhibitors” (Array BioPharma, Inc., priority 2009, dated 2017).

Key:
p38α MAP Kinase = experiment: A549 p38α MAP Kinase Bright-Glo Reporter Gene Assay; assay type: cell-based; settings: ratio of p38 RGA IC50 to A375 CP IC50
Procedure: A549 cells were stably-transfected with the IL-8 promoter driven reporter, pGL3-IL8-Luc. The cells were plated at 4×10^5/ml into 384-well solid white plates (40 ul/well, 5% CD-FBS, 1×P/S, DMEM) and were incubated overnight (18-20 hours) at 37° C. Test compounds were serially diluted in DMSO, then 50 nl of test solution was added to the incubation (final DMSO concentration of 0.1%). After incubating with test compound for 30 min, cells were stimulated with 1 ng/ml IL-1 beta (10 ul of 5 ng/ml solution per well). Bright-Glo (25 ul/well) was added to measure luciferase expression after 7-8 hours of stimulation.

A375 cells = experiment: A375 Cellular Proliferation Assay (A375 CP); assay type: cell-based; settings: Homo sapiens, A-375, 48 h; A375-luc cells, 2 days
Procedure: A375-luc cells engineered to express luciferase are plated to 384-well white clear bottom plates as 1,500 cells/50 μl/well in DMEM containing 10% FBS. Compounds of the invention dissolved in 100% DMSO at appropriate concentrations are transferred to the cells by a robotic Pin Tool (100 nl). The cells are incubated for 2 days at […], then 25 μl of BrightGlo™ is added to each well and the plates are read by luminescence. The concentration of each compound for 50% inhibition (IC50) was calculated by non-linear regression using XL Fit data analysis software.

[1] = In Vivo Pharmacokinetics Assay; set-up: species or system mouse; settings: oral dose of 10 mg/kg
Procedure: (§1) Full pharmacokinetics study: Male Balb/c mice (n=3, body weights 22-25 g) or male Wistar rats (n=3, body weights 250-300 g) were administered the test compound intravenously via the lateral tail vein or orally via gavage. The formulation was typically a 2.5 mg/mL solution of the compound in 75% PEG300 and 25% D5W. Six blood samples of 50 μL each were collected serially for 24 h after dosing. The blood samples were centrifuged to separate the plasma. Plasma samples were analyzed and quantified by LC-MS/MS.
as §1, with “Rapid” for “Full”, “intravenously (IV)” for “intravenously”, “orally (PO)” for “orally”, “The blood samples were centrifuged to separate the plasma.” left out
For both full and rapid pharmacokinetics studies, the following parameters were calculated by non-compartmental regression analysis using Winnonlin 5.0 software (Pharsight, Mountain View, Calif., USA): plasma clearance (Cl), plasma maximum concentration (Cmax), plasma area-under-the-concentration-time-curve (AUC0-inf), and percent oral bioavailability (F %).

SW620 cells = experiment: SW620 Cell Viability Assay (Cell Titer Glo); assay type: cell-based; settings: 9 serial dilutions between 10 and 0.002 μM, FIG. 1
Procedure: SW620 cells were seeded in 1640 RPMI+10% FBS at a density of 1500 cells per 96-well in black walled, clear bottom tissue culture treated plates. Test compounds were serially diluted in DMSO then added to the cells (final DMSO concentration of 0.1%) and incubated at 37° C. and 5% CO2 for 4 days. To measure cell viability, cell plates were brought to room temperature, culture media was removed, and 200 μl of Cell Titer-Glo reagent (Promega, kit components mixed as per the manufacturer's protocol then diluted 1:2 with growth media) was added to each well. Plates were shaken for 5 minutes, then incubated at room temperature for 5 minutes, and the luminescence was measured (Trilux, Perkin Elmer).

**Q.** With COC(=O)NC[C@H](C)Nc1nccc(-c2cn(C(C)C)nc2-c2cc(Cl)cc(NS(C)(=O)=O)c2F)n1 [Compound 32, Methyl N-[(2S)-2-({4-[3-(5-chloro-2-fluoro-3-methanesulfonamidophenyl)-1-(propan-2-yl)-1H-pyrazol-4-yl]pyrimidin-2-yl}amino)propyl]carbamate] as the compound, how does the “(p38 RGA)/(A375) ratio” value (p38α MAP Kinase) read?
**A.** Its value is 91.

**Q.** With COC(=O)N[C@@H](C)CNc1nccc(-c2cn(C(C)C)nc2-c2cc(NS(C)(=O)=O)c(C)c(OC)c2)n1 [Compound 27] as the compound, how does the IC50 (A375 cells) read?
**A.** Its IC50 is greater than 20 µM.

**Q.** For COC(=O)N[C@@H](C)CNc1nccc(-c2cn(C(C)C)nc2-c2cc(Cl)cc(NS(C)(=O)=O)c2F)n1 [Compound 9, Methyl N-[(2S)-1-({4-[3-(5-chloro-2-fluoro-3-methanesulfonamidophenyl)-1-(propan-2-yl)-1H-pyrazol-4-yl]pyrimidin-2-yl}amino)propan-2-yl]carbamate], which “AUC (total drug exposure)” value [1] is on record?
**A.** The value was 30 ± 4 µM·h.

**Q.** And the “Effect on cellular proliferation” value (SW620 cells)?
**A.** The value was “induction in cellular proliferation”.

**Q.** Which “(p38 RGA)/(A375) ratio” value (p38α MAP Kinase) does the source give for CNc1nccc(-c2cn(C(C)C)nc2-c2cc(Cl)cc(NS(C)(=O)=O)c2F)n1 [Compound 29, N-(5-chloro-2-fluoro-3-{4-[2-(methylamino)pyrimidin-4-yl]-1-(propan-2-yl)-1H-pyrazol-3-yl}phenyl)methanesulfonamide] here?
**A.** Its value is 220.
